Results taken from US20200223837A1, “BENZOFURAN AMIDES AND HETEROAROMATIC ANALOGUES THEREOF FOR USE IN THERAPY” (European Molecular Biology Laboratory, priority 2017, published 2020).

Tested on: EGR1 promoter
Test: EGR1 reporter assay (luciferase) in genomically engineered HeLa cell line
Format: cell-based
Conditions: Homo sapiens; EGR1 reporter HeLa cells, luciferase activity after 24 hours with compound
Text: The compounds of the present invention can be characterized for their effect on expression of egr1 (early growth response protein 1) using an EGR1 reporter cell line.
The HeLa cell line was genetically modified to provide a simple, robust and highly reproducible cell-based assay reporting the activity of an endogenous EGR1 promoter. In brief, a construct encoding EGFP and luciferase proteins, separated by a self-cleaving P2A peptide was inserted, using CRISPR, immediately downstream (3′) to the promoter of endogenous EGR1. Upon treatment with compounds, cells express EGFP and luciferase from EGR1 promoter, which can be readily detected either in live cells using microscopy or cytometry, or through detection of luciferase activity in cell lysates.
To achieve stable genomic integration of an EGR1-promoter dual reporter, two plasmids were generated: one contained the reporter construct (eGFP-P2A-luciferase) flanked by homology arms that direct insertion into genomic DNA, by homologous recombination, of a break in genomic DNA generated by guide RNA targeted cleavage by Cas9 endonuclease. The gRNA expressing plasmid was based on px330 (56), into which a gRNA sequence that targets a break in gDNA close to the start codon of EGR1 was cloned. The left homology arm (encoding part of EGR1 promoter adjacent to its start codon) and right homology arm (encoding […] of start codon of EGR1) were cloned from gDNA using the following primers: […]
The present compounds can be tested, e.g. by using a HeLa cell line carrying an EGR1 reporter construct which allows for expression of luciferase and eGFP (enhanced GFP) controlled by the EGR1 promoter. For this reporter cells are seeded in the wells of a 384 well microtiter plate at a density of 2000 cells per well in 48 μl of DMEM supplemented with 4.5 g/l glucose, 2 mM glutamine and 10% FCS and are incubated for 24 hours at 37° C. with 5% CO2 and 95% humidity. Then, an eleven point 1:3 serial dilution of each test compound, from an initial concentration of 100 μM, is prepared in DMSO and the dilutions are added to the cells in a volume of 2 μl per well. The cells are incubated for a further 24 hours, after which the luciferase activity of each well is determined by addition of 25 μl of luciferase substrate reaction mixture (Britelite™ plus, Perkin Elmer) and measuring the bioluminescence light output (EnVision Xcite plate reader, PerkinElmer).
The compound of example 64 served as a positive control for this EGR1 reporter assay. The compound of example 64 had been identified in an initial high throughput screening campaign.

Row | EC50 | Structure (SMILES)
1 | 0.01 to 10 µM | Cc1ccc2c(CC(=O)Nc3ncc(C#N)s3)coc2c1Cl [Example 59, 2-(7-Chloro-6-methyl-benzofuran-3-yl)-N-(5-cyano-1H-thiazol-2-yl)acetamide]
2 | 0.01 to 10 µM | O=C(Cc1coc2cc(Cl)ccc12)Nc1ncc(C(F)(F)F)s1 [Example 60, 2-(6-Chlorobenzofuran-3-yl)-N-[5-(trifluoromethyl)thiazol-2-yl]acetamide]
3 | 0.01 to 10 µM | Cc1ccc2c(CCC(=O)Nc3ncc(C(F)(F)F)s3)coc2c1C [Example 61, 3-(6,7-Dimethylbenzofuran-3-yl)-N-[5-(trifluoromethyl)thiazol-2-yl]propanamide]
4 | 0.01 to 10 µM | Cc1ccc2c(CC(=O)Nc3ncc(C#N)s3)coc2c1C [Example 62, N-(5-Cyanothiazol-2-yl)-2-(6,7-dimethylbenzofuran-3-yl)acetamide]
5 | 0.01 to 10 µM | O=C(Cc1coc2cc3c(cc12)CCC3)Nc1ncc(C(F)(F)F)s1 [Example 63, 2-(6,7-Dihydro-5H-cyclopenta[f]benzofuran-3-yl)-N-[5-(trifluoromethyl)thiazol-2-yl]acetamide]
6 | 0.01 to 10 µM | COCc1cnc(NC(=O)Cc2coc3cc4c(cc23)CCC4)s1 [Example 65, 2-(6,7-Dihydro-5H-cyclopenta[f]benzofuran-3-yl)-N-[5-(methoxymethyl)thiazol-2-yl]acetamide]
7 | 0.01 to 10 µM | CC(C(=O)Nc1ncc(C(F)(F)F)s1)c1coc2cc(Cl)ccc12 (stereo not shown) [Example 66, 2-(6-Chlorobenzofuran-3-yl)-N-[5-(trifluoromethyl)thiazol-2-yl]propanamide]
8 | 0.01 to 10 µM | COc1ccc(-c2csc(NC(=O)Cc3coc4cc(C)ccc34)n2)cc1Cl [Example 67, N-[4-(3-Chloro-4-methoxy-phenyl)thiazol-2-yl]-2-(6-methylbenzofuran-3-yl)acetamide]
9 | 0.01 to 10 µM | COc1ccc2c(CC(=O)N(c3ccc(C(C)=O)cc3)c3nc4ccccc4s3)coc2c1 [Example 68, N-(4-Acetylphenyl)-N-(1,3-benzothiazol-2-yl)-2-(6-methoxybenzofuran-3-yl)acetamide]
10 | 0.01 to 10 µM | CCc1ccc2c(CC(=O)N(c3ccc(C(C)=O)cc3)c3nc4ccccc4s3)coc2c1 [Example 69, N-(4-Acetylphenyl)-N-(1,3-benzothiazol-2-yl)-2-(6-ethylbenzofuran-3-yl)acetamide]
11 | 0.01 to 10 µM | C=CCN(C(=O)Cc1coc2cc(C)ccc12)c1nc(-c2ccc(S(C)(=O)=O)cc2)cs1 [Example 70, N-Allyl-2-(6-methylbenzofuran-3-yl)-N-[4-(4-methylsulfonylphenyl)thiazol-2-yl]acetamide]
12 | 0.01 to 10 µM | COc1ccc(-c2csc(NC(=O)Cc3coc4cc(OC)ccc34)n2)cc1 [Example 71, 2-(6-Methoxybenzofuran-3-yl)-N-[4-(4-methoxyphenyl)thiazol-2-yl]acetamide]
13 | 0.01 to 10 µM | N#Cc1cnc(NC(=O)Cc2coc3c(Cl)c(Cl)ccc23)s1 [Example 73, N-(5-Cyanothiazol-2-yl)-2-(6,7-dichlorobenzofuran-3-yl)acetamide]
14 | 0.01 to 10 µM | COc1ccc2c(CC(=O)Nc3nc(-c4ccc5c(c4)CCO5)cs3)coc2c1 [Example 74, N-[4-(2,3-Dihydrobenzofuran-5-yl)thiazol-2-yl]-2-(6-methoxybenzofuran-3-yl)acetamide]
15 | 0.01 to 10 µM | Cc1cnc(NC(=O)Cc2coc3c(Cl)c(Cl)ccc23)s1 [Example 75, 2-(6,7-Dichlorobenzofuran-3-yl)-N-(5-methylthiazol-2-yl)acetamide]
16 | 0.01 to 10 µM | COc1ccc2c(CC(=O)Nc3nc(-c4ccc(C5CCCCC5)cc4)cs3)coc2c1 [Example 76, N-[4-(4-Cyclohexylphenyl)thiazol-2-yl]-2-(6-methoxybenzofuran-3-yl)acetamide]
17 | 0.01 to 10 µM | COc1ccc2c(CC(=O)N(c3ccc(SC(F)F)cc3)c3nc4ccccc4s3)coc2c1 [Example 77, N-(1,3-Benzothiazol-2-yl)-N-[4-(difluoromethylsulfanyl)phenyl]-2-(6-methoxybenzofuran-3-yl)acetamide]
18 | 0.01 to 10 µM | COc1ccc2c(CC(=O)Nc3nc(-c4ccc5c(c4)OCO5)cs3)coc2c1 [Example 78, N-[4-(1,3-Benzodioxol-5-yl)thiazol-2-yl]-2-(6-methoxybenzofuran-3-yl)acetamide]
19 | 0.01 to 10 µM | COc1ccc2c(CC(=O)Nc3ncc(C)s3)coc2c1C [Example 79, 2-(6-Methoxy-7-methyl-benzofuran-3-yl)-N-(5-methylthiazol-2-yl)acetamide]

Row | EC50 | Structure (SMILES)
20 | 0.01 to 10 µM | O=C(Cc1coc2cc3c(cc12)CCC3)NCCNc1ncc(CO)s1 [Example 80, 2-(6,7-Dihydro-5H-cyclopenta[f]benzofuran-3-yl)-N-[2-[[5-(hydroxymethyl)thiazol-2-yl]amino]ethyl]acetamide]
21 | 0.01 to 10 µM | Cc1cc2occ(CC(=O)N(c3ccc(SC(F)F)cc3)c3nc4ccccc4s3)c2cc1C(C)C [Example 81, N-(1,3-Benzothiazol-2-yl)-N-[4-(difluoromethylsulfanyl)phenyl]-2-(5-isopropyl-6-methyl-benzofuran-3-yl)acetamide]
22 | 0.01 to 10 µM | Cc1ccc2c(CC(=O)N(c3ccc(SC(F)F)cc3)c3nc4ccccc4s3)coc2c1C [Example 82, N-(1,3-Benzothiazol-2-yl)-N-[4-(difluoromethylsulfanyl)phenyl]-2-(6,7-dimethylbenzofuran-3-yl)acetamide]
23 | 0.01 to 10 µM | Cc1ccc2c(CC(=O)Nc3ncc(C(F)(F)F)s3)coc2c1Cl [Example 83, 2-(7-Chloro-6-methyl-benzofuran-3-yl)-N-[5-(trifluoromethyl)thiazol-2-yl]acetamide]
24 | 0.01 to 10 µM | CCc1cnc(NC(=O)Cc2coc3cc4c(cc23)CCC4)s1 [Example 84, 2-(6,7-Dihydro-5H-cyclopenta[f]benzofuran-3-yl)-N-(5-ethylthiazol-2-yl)acetamide]
25 | 0.01 to 10 µM | COc1c(C)ccc2c(CC(=O)Nc3ncc(C)s3)coc12 [Example 86, 2-(7-Methoxy-6-methyl-benzofuran-3-yl)-N-(5-methylthiazol-2-yl)acetamide]
26 | 0.01 to 10 µM | COCc1cnc(NC(=O)Cc2coc3c(C)c(C)ccc23)s1 [Example 87, 2-(6,7-Dimethylbenzofuran-3-yl)-N-[5-(methoxymethyl)thiazol-2-yl]acetamide]
27 | 0.01 to 10 µM | Cc1cnc(NC(=O)Cc2coc3c(C)c(C)ccc23)s1 [Example 88, 2-(6,7-Dimethylbenzofuran-3-yl)-N-(5-methylthiazol-2-yl)acetamide]
28 | 0.01 to 10 µM | COCc1cnc(NC(=O)Cc2coc3c(Cl)c(C)ccc23)s1 [Example 89, 2-(7-Chloro-6-methyl-benzofuran-3-yl)-N-[5-(methoxymethyl)thiazol-2-yl]acetamide]
29 | 0.01 to 10 µM | Cc1cnc(NC(=O)Cc2coc3c(Cl)c(C)ccc23)s1 [Example 90, 2-(7-Chloro-6-methyl-benzofuran-3-yl)-N-(5-methylthiazol-2-yl)acetamide]
30 | 0.01 to 10 µM | COc1ccc2c(CC(=O)Nc3ncc(C(F)(F)F)s3)coc2c1C [Example 91, 2-(6-Methoxy-7-methyl-benzofuran-3-yl)-N-[5-(trifluoromethyl)thiazol-2-yl]acetamide]
31 | 0.01 to 10 µM | Cc1cnc(NC(=O)Cc2coc3c(C)c(Cl)ccc23)s1 [Example 92, 2-(6-Chloro-7-methyl-benzofuran-3-yl)-N-(5-methylthiazol-2-yl)acetamide]
32 | 0.01 to 10 µM | COCc1cnc(NC(=O)Cc2coc3c(Cl)c(Cl)ccc23)s1 [Example 93, 2-(6,7-Dichlorobenzofuran-3-yl)-N-[5-(methoxymethyl)thiazol-2-yl]acetamide]
33 | 0.01 to 10 µM | Cc1c(Cl)ccc2c(CC(=O)Nc3ncc(C(F)(F)F)s3)coc12 [Example 94, 2-(6-Chloro-7-methyl-benzofuran-3-yl)-N-[5-(trifluoromethyl)thiazol-2-yl]acetamide]
34 | 0.01 to 10 µM | Cc1ccc2c(CC(=O)Nc3ncc(C(C)C)s3)coc2c1C [Example 95, 2-(6,7-Dimethylbenzofuran-3-yl)-N-(5-isopropylthiazol-2-yl)acetamide]
35 | 0.01 to 10 µM | COc1c(C)ccc2c(CC(=O)Nc3ncc(C(F)(F)F)s3)coc12 [Example 97, 2-(7-Methoxy-6-methyl-benzofuran-3-yl)-N-[5-(trifluoromethyl)thiazol-2-yl]acetamide]
36 | 0.01 to 10 µM | CCc1cnc(NC(=O)Cc2coc3c(C)c(C)ccc23)s1 [Example 98, 2-(6,7-Dimethylbenzofuran-3-yl)-N-(5-ethylthiazol-2-yl)acetamide]
37 | 0.01 to 10 µM | Cc1ccc2c(CC(=O)Nc3ncc(C(F)(F)F)s3)coc2c1C [Example 99, 2-(6,7-Dimethylbenzofuran-3-yl)-N-[5-(trifluoromethyl)thiazol-2-yl]acetamide]
